PMC8468039, “Development of New Meridianin/Leucettine-Derived Hybrid Small Molecules as Nanomolar Multi-Kinase Inhibitors with Antitumor Activity” (Biomedicines, 2021)

What was measured:
Test in all cases: NCI growth inhibition (SRB) assay
Type in all cases: cell-based
786-0 = conditions: Homo sapiens, 786-0, Renal Cancer, single dose 10 µM, 48 h, read-out: Percent Growth Inhibition (GI)
Experimental: (§1) The antitumor assay was performed according to the protocol of the Drug Evaluation Branch, NCI, Bethesda. A 48 h drug exposure protocol was adopted, and sulforhodamine B (SRB) assay was utilized to assess the cell growth and viability, as reported earlier.
(§2) The inhibition results of tumor cell growth by the newly synthesized compounds (5a–5g) are described in Table 4. The reported measurements have been performed at the NIH National Cancer Institute, USA by a standardized assay including a panel of 60 different tumor cell lines (Supplementary Data). The following cancer cell types were included in these assays: Leukemia, non-small cell lung cancer, colon cancer, CNS cancer, melanoma, ovarian cancer, renal cancer, prostate, and breast cancer. […] Additionally, the 3,4-dimethoxy substituted compound (5b) also suffered poor activity against the cancer cell lines.

A498 = conditions: Homo sapiens, A498, Renal Cancer, single dose 10 µM, 48 h, read-out: Percent Growth Inhibition (GI)
Experimental: as §1, §2

ACHN = conditions: Homo sapiens, Renal Cancer, single dose 10 µM, 48 h, read-out: Percent Growth Inhibition (GI)
Experimental: as §1, §2

CAKI-1 = conditions: Homo sapiens, CAKI-1, Renal Cancer, single dose 10 µM, 48 h, read-out: Percent Growth Inhibition (GI)
Experimental: as §1, §2

CCRF-CEM = conditions: Homo sapiens, Leukemia, single dose 10 µM, 48 h, read-out: Percent Growth Inhibition (GI)
Experimental: as §1, §2

COLO 205 = conditions: Homo sapiens, COLO 205, Colon Cancer, single dose 10 µM, 48 h, read-out: Percent Growth Inhibition (GI)
Experimental: as §1, §2

HCT-116 = conditions: Homo sapiens, HCT-116, Colon Cancer, single dose 10 µM, 48 h, read-out: Percent Growth Inhibition (GI)
Experimental: as §1, §2

HCT-15 = conditions: Homo sapiens, HCT-15, Colon Cancer, single dose 10 µM, 48 h, read-out: Percent Growth Inhibition (GI)
Experimental: as §1, §2

HL-60(TB) = conditions: Homo sapiens, Leukemia, single dose 10 µM, 48 h, read-out: Percent Growth Inhibition (GI)
Experimental: as §1, §2

HOP-92 = conditions: Homo sapiens, HOP-92, Non-Small Cell Lung Cancer, single dose 10 µM, 48 h, read-out: Percent Growth Inhibition (GI)
Experimental: as §1, §2

HS 578T = conditions: Homo sapiens, Breast Cancer, single dose 10 µM, 48 h, read-out: Percent Growth Inhibition (GI)
Experimental: as §1, §2

HT29 = conditions: Homo sapiens, HT-29, HT29, Colon Cancer, single dose 10 µM, 48 h, read-out: Percent Growth Inhibition (GI)
Experimental: as §1, §2

IGROV1 = conditions: Homo sapiens, IGROV-1, IGROV1, Ovarian Cancer, single dose 10 µM, 48 h, read-out: Percent Growth Inhibition (GI)
Experimental: as §1, §2

K-562 = conditions: Homo sapiens, K562, K-562, Leukemia, single dose 10 µM, 48 h, read-out: Percent Growth Inhibition (GI)
Experimental: as §1, §2

KM12 = conditions: Homo sapiens, KM12, Colon Cancer, single dose 10 µM, 48 h, read-out: Percent Growth Inhibition (GI)
Experimental: as §1, §2

MCF7 = conditions: Homo sapiens, MCF7, Breast Cancer, single dose 10 µM, 48 h, read-out: Percent Growth Inhibition (GI)
Experimental: as §1, §2

MOLT-4 = conditions: Homo sapiens, MOLT-4, Leukemia, single dose 10 µM, 48 h, read-out: Percent Growth Inhibition (GI)
Experimental: as §1, §2

NCI-H522 = conditions: Homo sapiens, NCI-H522, Non-Small Cell Lung Cancer, single dose 10 µM, 48 h, read-out: Percent Growth Inhibition (GI)
Experimental: as §1, §2

PC-3 = conditions: Homo sapiens, PC-3, Prostate Cancer, single dose 10 µM, 48 h, read-out: Percent Growth Inhibition (GI)
Experimental: as §1, §2

RPMI-8226 = conditions: Homo sapiens, RPMI-8226, Leukemia, single dose 10 µM, 48 h, read-out: Percent Growth Inhibition (GI)
Experimental: as §1, §2

RXF 393 = conditions: RXF 393, Renal Cancer, single dose 10 µM
Experimental: as §1, §2

SF-539 = conditions: Homo sapiens, SF-539, CNS Cancer, single dose 10 µM, 48 h, read-out: Percent Growth Inhibition (GI)
Experimental: as §1, §2

SNB-75 = conditions: Homo sapiens, SNB-75, CNS Cancer, single dose 10 µM, 48 h, read-out: Percent Growth Inhibition (GI)
Experimental: as §1, §2

SR = conditions: 48 h, Leukemia, single dose 10 µM
Experimental: as §1, §2

T-47D = conditions: Homo sapiens, T47D, Breast Cancer, single dose 10 µM, 48 h, read-out: Percent Growth Inhibition (GI)
Experimental: as §1, §2

UACC-62 = conditions: Homo sapiens, UACC-62, Melanoma, single dose 10 µM, 48 h, read-out: Percent Growth Inhibition (GI)
Experimental: as §1, §2

UO-31 = conditions: Homo sapiens, UO-31, Renal Cancer, single dose 10 µM, 48 h, read-out: Percent Growth Inhibition (GI)
Experimental: as §1, §2

COc1ccc(Oc2nc(Nc3ccc(N4CCOCC4)cc3)ncc2NC(=O)c2cccc(SC)c2)cc1 [5g, N-(4-(4-Methoxyphenoxy)-2-((4-morpholinophenyl)amino)pyrimidin-5-yl)-3-(methylthio)benzamide]
inhibition at 10 µM (786-0): 25%
inhibition at 10 µM (A498): 18.9%
inhibition at 10 µM (ACHN): 21.4%
inhibition at 10 µM (CAKI-1): 29.4%
inhibition at 10 µM (CCRF-CEM): 13%
inhibition at 10 µM (COLO 205): 4.7%
inhibition at 10 µM (HCT-116): 23.7%
inhibition at 10 µM (HCT-15): 31.7%
inhibition at 10 µM (HL-60(TB)): 13.9%
inhibition at 10 µM (HOP-92): 20.2%
inhibition at 10 µM (HS 578T): 22.7%
inhibition at 10 µM (HT29): 24.3%
inhibition at 10 µM (IGROV1): 33.9%
inhibition at 10 µM (K-562): 29.1%
inhibition at 10 µM (KM12): 20.2%
inhibition at 10 µM (MCF7): 21.5%
inhibition at 10 µM (MOLT-4): 43.1%
inhibition at 10 µM (NCI-H522): 26.4%
inhibition at 10 µM (PC-3): 24.9%
inhibition at 10 µM (RPMI-8226): 20.5%
inhibition at 10 µM (RXF 393; Homo sapiens, RXF 393, 48 h, read-out: Percent Growth Inhibition (GI)): 70%
Percent Growth Inhibition (GI) (RXF 393; 48 h): 70.1%
inhibition at 10 µM (SF-539): 21.1%
inhibition at 10 µM (SNB-75): 21.5%
inhibition at 10 µM (SR; Homo sapiens, read-out: Percent Growth Inhibition (GI)): 60%
Percent Growth Inhibition (GI) (SR): 60.5%
inhibition at 10 µM (T-47D): 28.2%
inhibition at 10 µM (UACC-62): 14.7%
inhibition at 10 µM (UO-31): 43.7%
